Assay results reported in patent US12329738B2, “Urolithin A and a composition containing same for external use in inflammations of various etiologies” (WARSZAWSKI UNIWERSYTET MEDYCZNY, priority 2018, dated 2025).

Key:
[1] = system: NHDF fibroblasts (human normal skin fibroblasts); details: comparative studies by the inventors
Method: NHDF fibroblasts (human normal skin fibroblasts) were cultured in the DMEM medium supplemented with 10% FBS and a mixture of antibiotics—penicillin and streptomycin at 37° C., 5% CO2. […] After incubation with the compounds, the cells were washed twice with warm medium. The effect on cell viability was assessed using a standard MTT test.

[2] = system: TNF-alpha; assay: TNF-alpha production by THP-1 derived macrophages (ELISA); type: cell-based, human; details: 40 μM; LPS stimulation; FIG. 13
Method: (§1) Monocytes of the THP-1 line were cultured in RPMI 1640 medium supplemented with 10% FBS and 2 mM glutamine. For transformation of monocytes into macrophages, the cells were treated with 12.5 ng/mL PMA (phorbol 12-myristate 13-acetate) for 48 hours, then washed and incubated for 24 hours in a culture medium without PMA. After this time, urolithin A, urolithin B, iso-urolithin A and the corresponding glucuronides (GUA, GUB and GiUA) were added to the cells at a concentration of 40 μM. After 1 hour of incubation with the compounds, the cells were stimulated with LPS from Escherichia coli (10 ng/mL).
(§2) To assess the level of TNF-alpha production, the cells were incubated for 6 hours, to assess the expression of mRNA for TNF-alpha, the cells were incubated for 24 hours, to assess the effect on ERK1/2 phosphorylation, the cells were incubated for 35 minutes.
(§3) The level of TNF-alpha in the culture medium was determined using the immunochemical ELISA method (BD biosciences). Evaluation of the expression of mRNA for TNF-alpha was performed using real time PCR. After 24 hours of incubation, RNA was isolated using NucleoSpin RNA Clean-up (Macherey-Nagel). The amount and quality of isolated RNA was determined using 2100 Bioanalyzer (Agilent Technologies). The expression level of mRNA for TNF-α was determined using Brilliant II SYBR Green QPCR Kit and Aria Mx Real-Time PCR thermocycler (Agilent Technologies). The following were used as primers for TNF-alpha: forward: 5′-[…]-3′, reverse: 5′-[…]-3′. Beta-actin (ACTB) was used as the housekeeping gene; primer forward: 5′-[…]-3′, reverse: 5′-[…]-3′).
(§4) The obtained results of experiments on in vitro models were analyzed using the Statistica 13 program (StatSoft, Inc., Tulsa, OK, USA) and presented as mean values±SEM. Statistical significance was set at P≤0.05. The results with established normal distribution in the D'Agostin and Pearson test were prepared using analysis of variance (ANOVA). Parametric post-hoc analysis was performed using Dunnett's test.

[3] = system: mRNA for TNF-alpha; assay: TNF-alpha mRNA expression in THP-1 derived macrophages (real time PCR); type: cell-based, human; details: 40 μM; LPS stimulation; FIG. 14
Method: as §1, §2, §3, §4

[4] = system: ERK1/2; assay: ERK1/2 phosphorylation in THP-1 derived macrophages (Western blotting); type: cell-based, human; details: 40 μM; LPS 10 ng/mL, 35 min; FIG. 15
Method: Monocytes of the THP-1 line were cultured in RPMI 1640 medium supplemented with 10% FBS and 2 mM glutamine. For transformation of monocytes into macrophages, the cells were treated with 12.5 ng/mL PMA (phorbol 12-myristate 13-acetate) for 48 hours, then washed and incubated for 24 hours in a culture medium without PMA. After this time, urolithin A, urolithin B, iso-urolithin A and the corresponding glucuronides (GUA, GUB and GiUA) were added to the cells at a concentration of 40 μM. After 1 hour of incubation with the compounds, the cells were stimulated with LPS from Escherichia coli (10 ng/mL). To assess the level of TNF-alpha production, the cells were incubated for 6 hours, to assess the expression of mRNA for TNF-alpha, the cells were incubated for 24 hours, to assess the effect on ERK1/2 phosphorylation, the cells were incubated for 35 minutes. […] The obtained results of experiments on in vitro models were analyzed using the Statistica 13 program (StatSoft, Inc., Tulsa, OK, USA) and presented as mean values±SEM. Statistical significance was set at P≤0.05. The results with established normal distribution in the D'Agostin and Pearson test were prepared using analysis of variance (ANOVA). Parametric post-hoc analysis was performed using Dunnett's test.

[5] = system: TNF-alpha; assay: TNF-alpha production by macrophages from human peripheral blood monocytes (ELISA); type: cell-based; details: 40 μM; LPS 100 ng/mL, 24 h; FIG. 16
Method: Monocytes were isolated from peripheral human blood by a standard method using dextran sedimentation and Ficoll Hypaque gradient centrifugation. After isolation, monocytes were suspended in RPMI 1640 medium supplemented with L-glutamine, HEPES, streptomycin, amphotericin and gentamicin, and 20% autologous serum. Cell culture was carried out under these conditions for 7 days. […] After 24h, TNF-alpha level in the medium was determined using the immunochemical ELISA method (BD biosciences). The obtained results of experiments on in vitro models were analyzed using the Statistica 13 program (StatSoft, Inc., Tulsa, OK, USA) and presented as mean values±SEM. Statistical significance was set at P≤0.05. The results with established normal distribution in the D'Agostin and Pearson test were prepared using analysis of variance (ANOVA). Parametric post-hoc analysis was performed using Dunnett's test.

[6] = molecular target: T1, tyrosinase (Mus musculus, UniProt P11344); details: B16 melanoma cells; cited from earlier work
T1 sequence (P11344 19-533): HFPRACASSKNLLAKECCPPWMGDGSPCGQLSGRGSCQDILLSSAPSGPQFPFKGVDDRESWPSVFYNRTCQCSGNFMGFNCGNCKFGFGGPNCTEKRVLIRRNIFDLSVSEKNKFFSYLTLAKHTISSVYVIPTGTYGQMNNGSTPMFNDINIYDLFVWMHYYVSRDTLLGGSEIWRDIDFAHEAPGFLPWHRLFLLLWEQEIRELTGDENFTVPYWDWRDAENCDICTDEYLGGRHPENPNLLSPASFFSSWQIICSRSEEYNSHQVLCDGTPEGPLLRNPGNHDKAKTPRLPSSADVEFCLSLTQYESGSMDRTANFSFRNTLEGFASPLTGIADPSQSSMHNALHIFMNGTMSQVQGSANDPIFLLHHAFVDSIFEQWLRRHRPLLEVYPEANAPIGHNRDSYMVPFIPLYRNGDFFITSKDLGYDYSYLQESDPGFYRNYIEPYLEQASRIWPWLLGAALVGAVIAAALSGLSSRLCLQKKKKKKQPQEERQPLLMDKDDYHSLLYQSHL

SMILES	Antiproliferative activity on human skin fibroblast cells [1]	TNF-alpha production by THP-1 derived macrophages [2]	TNF-alpha mRNA expression in THP-1 derived macrophages [3]	ERK1/2 kinase phosphorylation in THP-1 derived macrophages [4]	Inhibition of TNF-alpha production by macrophages from human peripheral blood monocytes [5]	Tyrosinase activity (depigmentation) [6]
CC(=O)Oc1ccc2c(c1)oc(=O)c1cc(O)ccc12 [3-acetyl-urolithin A]	neither urolithin A, nor 8-acetyl-urolithin A, nor 3-acetyl-urolithin A showed antiproliferative activity	–	–	–	–	–
CC(=O)Oc1ccc2c(c1)c(=O)oc1cc(O)ccc12 [8-acetyl-urolithin A]	neither urolithin A, nor 8-acetyl-urolithin A, nor 3-acetyl-urolithin A showed antiproliferative activity	–	–	–	–	–
O=c1oc2cc(O)ccc2c2ccccc12 [urolithin B]	–	did not show any activity	inactive	did not exhibit such activity	inactive	suppressing tyrosinase activity
